Drawing on patent US12583855B2, “RET selective inhibitor, preparation method therefor and use thereof” (SHOUYAO HOLDINGS (BEIJING) CO., LTD., priority 2019, dated 2026), this text covers IC50 for 15 compounds.

Holding throughout (assay type): biochemical
The target in one experiment is VEGFR2 (Homo sapiens, UniProt P35968). The experiment in a line: In vitro enzymatic activity assay on VEGFR2 (HTRF). As to conditions: GST-VEGFR2 0.1 nM, ATP 2.5 μM. The method, then:
3. n Vitro Enzymatic Activity Assay for Compounds on VEGFR2
The compounds were diluted 5-fold with 100% DMSO starting from 1 mM (7 concentrations in total), and 2 μL of each concentration was added to 48 μL of reaction buffer (50 mM HEPES pH 7.5, 0.1 mM Na3VO4, 5 mM MgCl2, 1 mM MnCl2, 1 mM DTT, 0.001% Tween 20, and 100 μg/ml BSA) for dilution and mixing. 2.5 μL of compounds and 5 μL of GST-VEGFR2 (final concentration of 0.1 nM) were added to a 384-well plate (OptiPlate-384, purchased from PerkinElmer), the mixture was mixed by centrifugation, and 2.5 μL of ATP (final concentration of 2.5 μM) and TK Peptide Substrate mixture (final concentration of 1 μM, purchased from Cisbio) were added to start the reaction, with a total reaction volume of 10 μL. The 384-well plate was placed in an incubator and reacted at 23° C. for 1.5 h before the reaction was stopped by the addition of 5 μL of TK Antibody (purchased from Cisbio) and 5 μL of Streptavidin-XL665 (purchased from Cisbio). After further incubation in the incubator for 1 h. fluorescence values (excitation at 320 nm, detecting emitted light at 665 nm and 620 nm, and a ratio of the two as an enzyme activity signal) were read on Envision (purchased from PerkinElmer). The enzymatic activity signal of VEGFR2 was measured at 7 concentrations for each compound and the data were calculated using GraphPad Prism software to obtain the IC50 value for the compound.

The target of the next experiment is T1, RET^V804M (Homo sapiens, UniProt P07949, V804M).
T1 construct: GST-RET^V804M (658-1114 aa, final concentration of 0.02 nM)
T1 sequence (P07949 658-1114 V804M): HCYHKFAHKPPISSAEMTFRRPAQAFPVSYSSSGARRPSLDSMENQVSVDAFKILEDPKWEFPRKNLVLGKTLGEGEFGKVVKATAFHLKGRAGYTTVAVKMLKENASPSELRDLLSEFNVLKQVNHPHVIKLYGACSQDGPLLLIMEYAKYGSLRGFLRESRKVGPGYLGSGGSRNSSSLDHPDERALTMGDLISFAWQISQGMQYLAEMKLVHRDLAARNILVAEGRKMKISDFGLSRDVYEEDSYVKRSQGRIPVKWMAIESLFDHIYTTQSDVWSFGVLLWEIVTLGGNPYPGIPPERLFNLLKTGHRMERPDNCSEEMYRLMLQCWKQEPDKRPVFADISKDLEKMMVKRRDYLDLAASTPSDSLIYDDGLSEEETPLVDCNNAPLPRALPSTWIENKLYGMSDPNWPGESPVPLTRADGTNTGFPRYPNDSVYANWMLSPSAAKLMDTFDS
The experiment in a line: In vitro enzymatic activity assay on RET^V804M (HTRF). Conditions: GST-RET^V804M (658-1114 aa) 0.02 nM, ATP 1.5 μM. A general note: TR-FRET usually uses a lanthanide donor and a delayed reading to cut background.

The next experiment deals with T2, RET^WT (Homo sapiens, UniProt P07949).
T2 construct: GST-RET^WT (658-1114 aa, final concentration of 0.5 nM)
T2 sequence (P07949 658-1114): T1 sequence (P07949 658-1114 V804M) with M147V
The experiment in a line: In vitro enzymatic activity assay on RET^WT (HTRF). As to conditions: GST-RET^WT (658-1114 aa) 0.5 nM, ATP 25 μM. As for the experimental part:
1. In Vitro Enzymatic Activity Assay for Compounds on RET^WT
The compounds were diluted 5-fold with 100% DMSO starting from 0.2 mM (7 concentrations in total), and 2 μL of each concentration was added to 48 μL of reaction buffer (50 mM HEPES pH7.5, 0.1 mM Na3VO4, 5 mM MgCl2. 1 mM DTT, 0.001% Tween 20, and 100 μg/ml BSA) for dilution and mixing.
The 384-well plate was placed in an incubator and reacted at 23° C. for 2 h before the reaction was stopped by the addition of 5 μL of TK Antibody (purchased from Cisbio) and 5 μL of Streptavidin-XL665 (purchased from Cisbio). […] The enzymatic activity signal of RET^WT was measured at 7 concentrations for each compound and the data were calculated using GraphPad Prism software to obtain the IC50 value for the compound.

Where a chain is given by its changes, count along the chain named.

VEGFR2, sequence (P35968 20-1356): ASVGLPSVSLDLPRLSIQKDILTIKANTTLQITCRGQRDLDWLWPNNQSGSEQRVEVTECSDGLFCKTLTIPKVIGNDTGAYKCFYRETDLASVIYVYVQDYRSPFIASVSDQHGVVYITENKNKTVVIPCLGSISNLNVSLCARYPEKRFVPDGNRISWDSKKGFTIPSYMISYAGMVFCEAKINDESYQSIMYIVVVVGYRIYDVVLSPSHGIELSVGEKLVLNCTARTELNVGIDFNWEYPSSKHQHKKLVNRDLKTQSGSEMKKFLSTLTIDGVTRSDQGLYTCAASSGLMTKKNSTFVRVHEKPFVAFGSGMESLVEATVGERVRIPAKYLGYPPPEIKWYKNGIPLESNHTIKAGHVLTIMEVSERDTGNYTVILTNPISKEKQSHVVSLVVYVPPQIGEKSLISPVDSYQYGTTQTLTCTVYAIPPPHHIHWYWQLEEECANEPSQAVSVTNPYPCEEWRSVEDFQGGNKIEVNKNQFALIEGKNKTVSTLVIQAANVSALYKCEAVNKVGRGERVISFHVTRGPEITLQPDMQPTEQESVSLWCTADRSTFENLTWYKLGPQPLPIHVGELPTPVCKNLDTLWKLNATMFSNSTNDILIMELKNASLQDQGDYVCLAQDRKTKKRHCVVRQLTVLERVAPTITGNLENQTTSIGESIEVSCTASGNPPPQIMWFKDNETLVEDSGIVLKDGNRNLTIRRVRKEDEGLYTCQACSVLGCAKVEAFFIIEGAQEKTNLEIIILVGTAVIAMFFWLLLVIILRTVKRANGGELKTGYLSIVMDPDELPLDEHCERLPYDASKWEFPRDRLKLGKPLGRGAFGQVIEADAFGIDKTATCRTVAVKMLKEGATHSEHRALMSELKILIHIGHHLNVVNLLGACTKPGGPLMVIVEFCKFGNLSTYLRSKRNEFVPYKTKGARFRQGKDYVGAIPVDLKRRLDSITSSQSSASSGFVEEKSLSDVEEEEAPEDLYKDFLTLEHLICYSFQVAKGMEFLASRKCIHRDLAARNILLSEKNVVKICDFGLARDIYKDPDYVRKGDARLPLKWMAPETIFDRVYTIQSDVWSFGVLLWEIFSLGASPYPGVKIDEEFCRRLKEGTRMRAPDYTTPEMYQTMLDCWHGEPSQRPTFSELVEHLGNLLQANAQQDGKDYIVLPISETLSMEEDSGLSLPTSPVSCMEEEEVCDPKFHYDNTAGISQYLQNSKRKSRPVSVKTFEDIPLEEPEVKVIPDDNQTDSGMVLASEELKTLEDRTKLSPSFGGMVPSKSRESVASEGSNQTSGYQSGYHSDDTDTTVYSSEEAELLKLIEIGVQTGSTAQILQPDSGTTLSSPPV

For orientation: IC50 means the midpoint of a concentration-inhibition curve. In the case of `CSc1cccc(CN2C3CC2CN(c2ccc(-c4cc(-c5cnn(C(F)F)c5)cn5ncc(C#N)c45)cn2)C3)n1` [Example 74, 6-(1-(difluoromethyl)-1Hpyrazol-4-yl)-4-(6-(6-((6-(methylthio)pyridin-2-yl)methyl)-3,6-diazabicyclo[3.1.1]heptan-3-yl)pyridin-3-yl)pyrazolo[1,5-a]pyridine-3-carbonitrile], the figures for the IC50 against VEGFR2, against RET^V804M and against RET^WT were 14.4 nM, 4.19 nM and 0.676 nM, respectively.

In the case of `COc1ccc(CN2C3CC2CN(c2ccc(-c4cc(N5CC(C#N)C5)cn5ncc(C#N)c45)cn2)C3)cn1` [Example 13, 6-(3-cyanoazetidin-1-yl)-4-(6-(6-((6-methoxypyridin-3-yl)methyl)-3,6-diazabicyclo[3.1.1]heptan-3-yl)pyridin-3-yl)pyrazolo[1,5-a]pyridine-3-carbonitrile], the IC50 on VEGFR2 worked out at 3.44 nM; on RET^V804M, 0.332 nM; against RET^WT, 0.421 nM.

For the compound `COc1ccc(CN2C3CC2CN(c2ccc(-c4cc(N5CC6(CCOCC6)C5)cn5ncc(C#N)c45)cn2)C3)cn1` [Example 30, 4-(6-(6-((6-methoxypyridin-3-yl)methyl)-3,6-diazabicyclo[3.1.1]heptan-3-yl)pyridin-3-yl)-6-(7-oxa-2-azaspiro[3.5]nonan-2-yl) pyrazolo[1,5-a]pyridine-3-carbonitrile], the IC50 at RET^V804M amounted to 1.11 nM; against RET^WT, 0.68 nM.

For `CS(=O)(=O)c1ccc(CN2C3CCC2CN(c2ccc(-c4cc(-c5cnn(C(F)F)c5)cn5ncc(C#N)c45)cn2)C3)cc1` [Example 69, 6-(1-difluoromethyl-1Hpyrazol-4-yl)-4-(6-(8-(4-(methylsulfonyl)benzyl)-3,8-diazabicyclo[3.2.1]octan-3-yl)pyridin-3-yl)pyrazolo[1,5-a]pyridine-3-carbonitrile], the results for the IC50 on VEGFR2, against RET^V804M and at RET^WT were 63.1 nM, 5.47 nM and 0.716 nM, respectively.

Take `CSc1ccc(CN2C3CCC2CN(c2ccc(-c4cc(-c5cnn(C(F)F)c5)cn5ncc(C#N)c45)cn2)C3)cn1` [Example 73, 6-(1-(difluoromethyl)-1Hpyrazol-4-yl)-4-(6-(8-((6-(methylthio)pyridin-3-yl)methyl)-3,8-diazabicyclo[3.2.1]octan-3-yl)pyridin-3-yl)pyrazolo[1,5-a]pyridine-3-carbonitrile]: the IC50 at VEGFR2 was found to be 65.4 nM; at RET^V804M, 5.89 nM; against RET^WT, 0.753 nM.

In the case of `COc1ccc(CN2C3CC2CN(c2ccc(-c4cc(N5CC6(COC6)C5)cn5ncc(C#N)c45)cn2)C3)cn1` [Example 14, 4-(6-(6-((6-methoxypyridin-3-yl)methyl)-3,6-diazabicyclo[3.1.1]heptan-3-yl)pyridin-3-yl)-(2-oxa-azaspiro[3.3]hepta-6-yl)pyrazolo[1,5-a]pyridine-3-carbonitrile], the IC50 on VEGFR2 came out at 1.55 nM; on RET^V804M, 0.629 nM; on RET^WT it was 0.762 nM.

For the compound `COc1ccc(CN2CCN(c3ccc(-c4cc(N5CC(OC)C5)cn5ncc(C#N)c45)cn3)CC2)cn1` [Example 33, 6-(3-methoxyazetidin-1-yl)-4-(6-(4-((6-methoxypyridin-3-yl)methyl)piperazin-1-yl)pyridin-3-yl)pyrazolo[1,5-a]pyridine-3-carbonitrile], the figures for the IC50 against VEGFR2, against RET^V804M and at RET^WT were 7.5 nM, 2.84 nM and 0.944 nM, respectively.

As to `CS(=O)(=O)c1ccc(CN2C3CC2CN(c2cnc(-c4cc(-c5cnn(C(F)F)c5)cn5ncc(C#N)c45)cn2)C3)cc1` [Example 70, 4-(5-(6-(4-(methylsulfonyl)benzyl)-3,6-diazabicyclo[3.1.1]heptan-3-yl)pyrazin-2-yl)-6-(1-(difluoromethyl)-1Hpyrazol-4-yl) pyrazolo[1,5-a] pyridine-3-carbonitrile], the IC50 against VEGFR2 turned out to be 55.7 nM; against RET^V804M, 2.52 nM; at RET^WT it was 0.324 nM.

For the compound `CS(=O)(=O)c1ccc(CN2C3CC2CN(c2ccc(-c4cc(N5CC(F)(F)C5)cn5ncc(C#N)c45)cn2)C3)cc1` [Example 36, 6-(3,3-difluoroazetidin-1-yl)-4-(6-(6-(4-(methylsulfonyl)benzyl)-3,6-diazabicyclo [3.1.1]heptan-3-yl)pyridin-3-yl)pyrazolo[1,5-a]pyridine-3-carbonitrile], the IC50 on VEGFR2 was 16.9 nM; at RET^V804M it was 2.58 nM; against RET^WT it was 0.179 nM.

`COC/C=C/C(=O)N1C2CC1CN(c1ccc(-c3cc(-c4cnn(C)c4)cn4ncc(C#N)c34)cn1)C2` [Example 61, (E)-4-(6-(6-(4-methoxybut-2-enoyl)-3,6-diazabicyclo[3.1.1]heptan-3-yl)pyridin-3-yl)-6-(1-methyl-1Hpyrazol-4-yl)pyrazolo[1,5-a]pyridine-3-carbonitrile]: the IC50 came to 18.2 nM against VEGFR2, 6.37 nM on RET^V804M and 0.779 nM against RET^WT.

For the compound `COc1ccc(CN2C3CC2CN(c2ccc(-c4cc(N5CC(O)(C(F)(F)F)C5)cn5ncc(C#N)c45)cn2)C3)cn1` [Example 28, 6-(3-hydroxy-3-(trifluoromethyl)azetidin-1-yl)-4-(6-(6-((6-methoxypyridin-3-yl)methyl)-3,6-diazabicyclo[3.1.1]heptan-3-yl)pyridin-3-yl)pyrazolo[1,5-a]pyridine-3-carbonitrile], the results for the IC50 at RET^V804M and on RET^WT were 2.5 nM and 0.757 nM, respectively.

Consider `CC(C)(O)COc1cc(-c2ccc(N3CC4CC(C3)N4Cc3ccc(S(C)(=O)=O)cc3)nc2)c2c(C#N)cnn2c1` [Example 38, 6-(2-hydroxy-2-methylpropoxy)-4-(6-(6-(4-(methylsulfonyl)benzyl)-3,6-diazabicyclo[3.1.1]heptan-3-yl)pyridin-3-yl)pyrazolo[1,5-a]pyridine-3-carbonitrile], for which the IC50 on VEGFR2 is 40.3 nM; against RET^WT, 0.419 nM.

`CN(C)C(=O)Cn1cc(-c2cc(-c3ccc(N4CCN(Cc5ccc(S(C)(=O)=O)cc5)CC4)nc3)c3c(C#N)cnn3c2)cn1` [Example 54]: the IC50 stood at 10.1 nM against VEGFR2 and 1.07 nM against RET^WT.

Consider `CSc1ccc(CN2C3CC2CN(c2ccc(-c4cc(OCC(C)(C)O)cn5ncc(C#N)c45)cn2)C3)cn1` [Example 11, 6-(2-hydroxy-2-methylpropoxy)-4-(6-(6-((6-(methylthio)pyridin-3-yl)methyl)-3,6-diazabicyclo[3.1.1]heptan-3-yl)pyridin-3-yl)pyrazolo[1,5-a]pyridine-3-carbonitrile], for which the IC50 came to 37 nM against VEGFR2 and 1.73 nM against RET^WT.

For `N#Cc1cnn2cc(-c3cnn(C(F)F)c3)cc(-c3ccc(N4CC5CC(C4)N5Cc4ccc([N+](=O)[O-])cc4)nc3)c12` [Example 83, 4-(6-(6-(4-nitrobenzyl)-3,6-diazabicyclo[3.1.1]heptan-3-yl)pyridin-3-yl)-6-(1-(difluoromethyl)-1Hpyrazol-4-yl)pyrazolo[1,5-a]pyridine-3-carbonitrile], the IC50 against VEGFR2 amounted to 4.59 nM; at RET^WT it was 0.12 nM.
